{
  "source": "patent US10835623B2",
  "about": "“Manganese-based chelate conjugates for molecular MR imaging” (The General Hospital Corporation, priority 2015, dated 2020)",
  "key": {"[1]": {"details": "read-out: Kd for HA; cited from earlier work"}, "[2]": {"assay": "Relaxivity in PBS / Tris buffer / water (Bruker mq60 Minispec)", "type": "physicochemical", "details": "1.41 T, 37° C.", "experimental": "(§1) NMR spectra were recorded on a 500 MHz Varian spectrometer at 25° C. unless otherwise noted. Chemical shifts are reported in δ (ppm). For ^1H and ^13C NMR spectra, the residual solvent peaks were used as internal reference except for ^13C NMR recorded in D2O where dioxane was used as the internal references (Fulmer, Organometallics 2010, 29, 2176.).^1 Relaxivity measurements were performed on a Bruker mq60 Minispec, 1.41 T and 37° C. Longitudinal (T1) relaxation was acquired via an inversion recovery experiment using 10 inversion times of duration ranging between 0.05×T1 and 5×T1; tranverse […] relaxation was measured using a […] spin-echo experiment. Relaxivity (r1,2) was determined from the slope of a plot of 1/T1,2 vs. [Mn] for at least 4 concentrations. The transverse (T2) relaxation times of ^17O were acquired at 11.7 T from the full-width at half-height of the H2^17O signal (Gale, Carvan, J. Am. Chem. Soc. 2013, 135, 18600). ^17O T2 relaxivity (r2^O) was calculated by dividing the Mn-imparted increase in 1/T2 relative to neat H2O (pH 3) by the Mn concentration in mM. 0.7-1.0 mL NMR samples were enriched with a 10 μL of 18% H2^17O."}, "[3]": {"test_system": "plasma proteins such as serum albumin", "assay": "Relaxivity in human blood plasma", "type": "physicochemical", "details": "1.41 T, 37° C.", "experimental": "as §1\nIncorporation of lipophilic functionality into the chelate-metal complexes promotes binding to plasma proteins such as serum albumin. This binding provides a change in relaxivity measured in human blood plasma compared to that measured in PBS. In most cases, a large (40-170%) increase in relaxivity (r1 or r2) is observed (Table 1)."}},
  "data": [
    {"substance": "GAHWQFNALTVR", "values": [
      {"measurement": "Kd", "setting": "[1]", "value": "~1", "unit": "µM"}
    ]},
    {"substance": "Na[Mn(PyC3A-3-ethyl ester)] [Compound 10]", "values": [
      {"measurement": "r1 in PBS", "setting": "[2]", "value": 2.7, "unit": "mM⁻¹ s⁻¹"},
      {"measurement": "r1 in human blood plasma", "setting": "[3]", "value": 5.8, "unit": "mM⁻¹ s⁻¹"}
    ]},
    {"substance": "Na[Mn(PyC3A-4-methoxy-3.5-dimethyl) [Compound 13]", "values": [
      {"measurement": "r1 in PBS", "setting": "[2]", "value": 2.5, "unit": "mM⁻¹ s⁻¹"},
      {"measurement": "r1 in human blood plasma", "setting": "[3]", "value": 3.5, "unit": "mM⁻¹ s⁻¹"}
    ]},
    {"substance": "Na[Mn(PyC3A-5-hydrazide)] [Compound 25]", "values": [
      {"measurement": "r1 in PBS", "setting": "[2]", "value": 3.4, "unit": "mM⁻¹ s⁻¹"},
      {"measurement": "r1 in human blood plasma", "setting": "[3]", "value": 5.2, "unit": "mM⁻¹ s⁻¹"}
    ]},
    {"substance": "Na[Mn(PyC3A-5-hydroxymethyl)] [Compound 7]", "values": [
      {"measurement": "r1 in PBS", "setting": "[2]", "value": 2.1, "unit": "mM⁻¹ s⁻¹"},
      {"measurement": "r1 in human blood plasma", "setting": "[3]", "value": 5.7, "unit": "mM⁻¹ s⁻¹"}
    ]},
    {"substance": "Na[Mn(PyC3A-5-methyl ester)] [Compound 4]", "values": [
      {"measurement": "r1 in PBS", "setting": "[2]", "value": 3.1, "unit": "mM⁻¹ s⁻¹"},
      {"measurement": "r1 in human blood plasma", "setting": "[3]", "value": 2.1, "unit": "mM⁻¹ s⁻¹"}
    ]}
  ]
}
